Paper PMC9293909 (Nature Communications, 2022)
Several values for one entry are separate records, joined by “and”; a condition that tells them apart may be missing. Equal values may be shown once.

Assays:
[1] = Half-life determination in human plasma; conditions: UoBern01 at 1.00E-06 M
Method: (§3) At the end of incubation at each of the time points (0, 0.5, 1, 1.5, 2 h), acetonitrile was added to the incubation mixture followed by centrifugation. Samples were analysed by HPLC-MS/MS and peak areas were recorded for each analyte. The area of precursor compound remaining after each of the time points relative to the amount remaining at time 0, expressed as a percentage, was calculated. Subsequently, the t1/2 is estimated from the slope of the initial linear range of the logarithmic curve of compound remaining (%) versus time, assuming first-order kinetics.

[2] = in vitro; conditions: human, plasma
Method: as §3

[3] = Half-life determination in PBS; assay type: physicochemical; conditions: PBS, pH 7.4
Method: […] Samples were analysed by HPLC-MS/MS and corresponding peak areas were recorded for each analyte. The ratio of precursor compound remaining after each time-point relative to the amount present at time 0, expressed as a percentage, is reported as chemical stability.

[4] = Intrinsic clearance by human liver microsomes; conditions: UoBern01 at 1.00E-07 M
[5] = tested on: native presynaptic A1Rs, rat hippocampal slices; assay: Extracellular fEPSP recording, inhibition of excitatory synaptic transmission in hippocampal slices; assay type: cell-based
Method: (§1) Rats were kept on a 12-hour light-dark cycle with slices made 90 min after entering the light cycle. […] The brain was removed, cut down the midline and the two sides of the brain stuck down to a metal base plate using cyanoacrylate glue. […] Slices were stored at 34 °C for 1–6 h in aCSF (1 mM MgCl2, 2 mM CaCl2) before use.
A slice was transferred to the recording chamber, submerged in aCSF and perfused at 4–6 ml min^−1 (32 ± 0.5 °C). The slice was placed on a grid allowing perfusion above and below the tissue and all tubing was gastight (to prevent loss of oxygen). […] Field excitatory postsynaptic potentials (fEPSPs) were evoked with either an isolated pulse stimulator model 2100 (AM Systems, WA) or ISO-Flex (AMPI, Jerusalem, Israel). For fEPSPs a 10–20 min baseline was recorded at a stimulus intensity that gave 40-50% of the maximal response. […] For fEPSP slope, a 1 ms linear region after the fibre volley was measured. Extracellular recordings were made independently on two electrophysiology rigs.
Statistical significance was tested as indicated in the text using paired or unpaired two-tailed t-tests or one-way or two-way ANOVAs with repeated measures (RM) as appropriate. Bonferroni corrections for multiple comparisons were performed. All in vitro cell signalling assay data was analysed using Prism 8.4 (Graphpad software, San Diego, CA), with all concentration-response curves being fitted using a 3 parameter logistic equation to calculate response range and IC50. All cAMP data was normalised to a forskolin concentration-response curve ran in parallel to each assay.

[6] = tested on: CA1 pyramidal cells (Goa / Gob signalling); assay: Whole-cell voltage-clamp, adenosine-induced outward current with intracellular G protein interfering peptides; assay type: cell-based, rat; conditions: adenosine 10 µM, peptide 100 µM, held at −60 mV
Method: (§2) A slice was transferred to the recording chamber and perfused at 3 ml min^−1 with aCSF at 32 ± 0.5 °C. Slices were visualised using IR-DIC optics with an Olympus BX151W microscope (Scientifica) and a CCD camera (Hitachi). […] Voltage and current recordings were obtained using an Axon Multiclamp 700B amplifier (Molecular Devices, USA) and digitised at 20 KHz. Data acquisition and analysis was performed using pClamp 10 (Molecular Devices, USA). For voltage-clamp experiments, CA1 pyramidal cells were held at −60 mV. Peptides to interfere with G protein signalling were introduced via the patch pipette into the recorded cell.
Drugs were made up as stock solutions (1-10 mM) and then diluted in aCSF or saline on the day of use. […] MRS1523 was purchased from Cayman Chemicals (Cambridge Bioscience Ltd., Cambridge UK). […] CA200645 and peptides for interfering with G protein signalling were obtained from Hello Bio (Bristol, UK) and were based on published sequences. […] The scrambled version was […]. […] Peptides were made up as stock solutions (2 mM) and stored at −20 °C. The stock solutions were dissolved in filtered intracellular solution just before use.

[7] = tested on: postsynaptic A1Rs, CA1 pyramidal cells; assay: Whole-cell patch-clamp, membrane potential of CA1 pyramidal cells; assay type: cell-based, rat
Method: as §1, §2

[8] = incubation 0 minutes, UoBern01 at 1.00E-06 M
[9] = incubation 60 minutes, UoBern01 at 1.00E-06 M
[10] = incubation 120 minutes, UoBern01 at 1.00E-06 M
[11] = incubation 180 minutes, 1.00E-06 M
[12] = incubation 240 minutes, 1.00E-06 M

## CC(C)[N+](C)(CCOC(=O)C1c2ccccc2Oc2ccccc21)C(C)C [Propantheline]
[1]
  2nd / Half-Life: 50.4 min
  Mean / Half-Life: 49 min
[1]; incubation 0 minutes
  1st / % Compound Remaining: 100%
  2nd / % Compound Remaining: 100%
  Mean / % Compound Remaining: 100%
[1]; incubation 30 minutes
  1st / % Compound Remaining: 69.6%
  2nd / % Compound Remaining: 53.9%
  Mean / % Compound Remaining: 61.7%
[1]; incubation 60 minutes
  1st / % Compound Remaining: 44.8%
  2nd / % Compound Remaining: 36.9%
  Mean / % Compound Remaining: 40.9%
[1]; incubation 90 minutes
  1st / % Compound Remaining: 29.3%
  2nd / % Compound Remaining: 22.6%
  Mean / % Compound Remaining: 26%
[1]; incubation 120 minutes
  1st / % Compound Remaining: 16.8%
  2nd / % Compound Remaining: 19.6%
  Mean / % Compound Remaining: 18.2%
[2]
  half-life: 46.9 min
[3]; UoBern01 at 1.00E-06 M
  Mean / Half-Life: >120 min
[3]; [8]
  1st / % Compound Remaining: 100%
  2nd / % Compound Remaining: 100%
  Mean / % Compound Remaining: 100%
[3]; incubation 30 minutes
  1st / % Compound Remaining: 95.1%
  2nd / % Compound Remaining: 97.9%
  Mean / % Compound Remaining: 96.5%
[3]; [9]
  1st / % Compound Remaining: {129.3} %
  2nd / % Compound Remaining: 96.1%
  Mean / % Compound Remaining: 96.1%
[3]; incubation 90 minutes
  1st / % Compound Remaining: 86.5%
  2nd / % Compound Remaining: 89.2%
  Mean / % Compound Remaining: 87.8%
[3]; [10]
  1st / % Compound Remaining: {72.3} %
  2nd / % Compound Remaining: 76.6%
  Mean / % Compound Remaining: 76.6%
[3]; read-out: 1st / Half-Life
  half-life: > 120 min

## OC[C@H]1O[C@@H](n2cnc3c(N[C@@H]4CCC[C@H]4OCc4ccccc4)ncnc32)[C@H](O)[C@@H]1O [UoBern01]
[1]
  1st / Half-Life: >120 min
  2nd / Half-Life: >120 min
  Mean / Half-Life: >120 min
[1]; incubation 0 minutes
  1st / % Compound Remaining: 100%
  2nd / % Compound Remaining: 100%
  Mean / % Compound Remaining: 100%
[1]; incubation 30 minutes
  1st / % Compound Remaining: 104.2%
  2nd / % Compound Remaining: {224.0} %
  Mean / % Compound Remaining: 104.2%
[1]; incubation 60 minutes
  1st / % Compound Remaining: 124.2%
  2nd / % Compound Remaining: 99%
  Mean / % Compound Remaining: 111.6%
[1]; incubation 90 minutes
  1st / % Compound Remaining: 133.3%
  2nd / % Compound Remaining: 101.7%
  Mean / % Compound Remaining: 117.5%
[1]; incubation 120 minutes
  1st / % Compound Remaining: {142.4} %
  2nd / % Compound Remaining: 108.4%
  Mean / % Compound Remaining: 108.4%
[3]; UoBern01 at 1.00E-06 M
  2nd / Half-Life: >240 min
  Mean / Half-Life: >240 min
[3]; [8]
  1st / % Compound Remaining: 100%
  2nd / % Compound Remaining: 100%
  Mean / % Compound Remaining: 100%
[3]; [9]
  1st / % Compound Remaining: 100%
  2nd / % Compound Remaining: {204.3} %
  Mean / % Compound Remaining: 100%
[3]; [10]
  1st / % Compound Remaining: 99.8%
  2nd / % Compound Remaining: 105.3%
  Mean / % Compound Remaining: 102.5%
[3]; [11]
  1st / % Compound Remaining: 96.7%
  2nd / % Compound Remaining: {108.7} %
  Mean / % Compound Remaining: 96.7%
[3]; [12]
  1st / % Compound Remaining: 89.5%
  2nd / % Compound Remaining: 100.9%
  Mean / % Compound Remaining: 95.2%
[4]
  Clint: <115.5
  Mean / Half-Life: >60 min
[4]; incubation 0 minutes
  1st / % Compound Remaining: 100%
  2nd / % Compound Remaining: 100%
  Mean / % Compound Remaining: 100%
[4]; incubation 15 minutes
  1st / % Compound Remaining: 108.5%
  2nd / % Compound Remaining: 101.9%
  Mean / % Compound Remaining: 105.2%
[4]; incubation 30 minutes
  1st / % Compound Remaining: 92.9%
  2nd / % Compound Remaining: 86%
  Mean / % Compound Remaining: 89.4%
[4]; incubation 45 minutes
  1st / % Compound Remaining: 92%
  2nd / % Compound Remaining: 89.5%
  Mean / % Compound Remaining: 90.7%
[4]; incubation 60 minutes
  1st / % Compound Remaining: 84.1%
  2nd / % Compound Remaining: 69.7%
  Mean / % Compound Remaining: 76.9%

## CCCOc1cc(N)ccc1C(=O)OCCN(CC)CC [Propoxycaine]
[1]
  2nd / Half-Life: 3.4 min
  Mean / Half-Life: 4 min
[1]; incubation 0 minutes
  1st / % Compound Remaining: 100%
  2nd / % Compound Remaining: 100%
  Mean / % Compound Remaining: 100%
[1]; incubation 30 minutes
  1st / % Compound Remaining: 0.4%
  2nd / % Compound Remaining: 0.2%
  Mean / % Compound Remaining: 0.3%
[1]; incubation 60 minutes
  1st / % Compound Remaining: 0.3%
  2nd / % Compound Remaining: 0.2%
  Mean / % Compound Remaining: 0.3%
[1]; incubation 90 minutes
  1st / % Compound Remaining: 0.3%
  2nd / % Compound Remaining: 0.5%
  Mean / % Compound Remaining: 0.4%
[1]; incubation 120 minutes
  1st / % Compound Remaining: 0.1%
  2nd / % Compound Remaining: 0.3%
  Mean / % Compound Remaining: 0.2%
[2]
  half-life: 3.8 min

## CCNC(=O)[C@H]1O[C@@H](n2cnc3c(N)ncnc32)[C@H](O)[C@@H]1O [NECA, 5′-(N-Ethylcarboxamido) adenosine]
[5]; fEPSP, rat hippocampal slices, read-out: IC50 inhibition of synaptic transmission
  IC50: 8.3 ± 3 nM

## LNRGNAYLCIGMG [Goa SCR, scrambled version of the Goa interfering peptide]
[6]
  adenosine-induced outward current with intracellular peptide: 45.8 pA and 40.3 pA and 52.5 pA and 32 pA and 47 pA and 43.9 pA and 42 pA
[6]; listed as scrambled Goa peptide
  adenosine-induced outward current with intracellular peptide: 43.4 ± 2.4 pA
[6]; mean
  adenosine-induced outward current with intracellular peptide: 43.36 pA

## CNC(=O)[C@H]1O[C@@H](n2cnc3c(NCc4cccc(I)c4)nc(Cl)nc32)[C@H](O)[C@@H]1O [2-Cl-IB-MECA]
[7]; 1 µM
  effect on membrane potential: had no effect on membrane potential

## OC[C@H]1O[C@@H](n2cnc3c(N[C@@H]4CCC[C@H]4OCc4ccccc4)ncnc32)[C@H](O)[C@@H]1O [BnOCPA, (2 R,3 R,4 S,5 R)−2-(6-{[(1 R,2 R)−2-benzyloxycyclopentyl]amino}−9H-purin-9-yl)−5-(hydroxymethyl)oxolane-3,4-diol]
[5]; 300 nM
  time constant of inhibition of synaptic transmission (single exponential): 2.2 min

## NCC(CC(=O)O)c1ccc(Cl)cc1 (centres unmarked) [baclofen]
[7]; baclofen 10 µM in the presence of BnOCPA 300 nM
  membrane hyperpolarisation: 6.5 ± 0.43 mV
[7]; baclofen in control conditions
  membrane hyperpolarisation: 6.3 ± 0.76 mV
